# Data published in the supplement of paper PMC11208160.
# Experiment: recombinant UMI read abundance after kanamycin selection (control-corrected) (log10(CPM+1)); higher = more efficient recombination; extreme values may be limits of the assay; sequences stand for … in AGTGCAGAGAAAATCGGCCAGTTTTCTCTGCCTGCAGTCCGCATGCCGTGGGACCCCTTGGGTTCTAACCTGTTGCCTAGATTTATGCAGCGGACTGCCTTTCTCCCAAAGTGATAAACCGG…AGGTTGGTTTCACT; site = the 11-nt donor
# Protocol: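 Pooled E. coli donor-specificity screen for the IS621 bridge recombinase. Each library member carries a reprogrammed 11-nt donor and a full-length LE bridge RNA expressed in cis from the natural promoter, with a paired donor-binding loop (8-nt LDG + 4-nt RDG) and a target-binding loop fixed to T5. It is co-electroporated with a T5 target plasmid; recombinase is induced with 0.07 mM IPTG and recombinants are selected on kanamycin. UMIs are counted as CPM, averaged over two biological replicates and corrected by the unselected control. Molecule = full bridge RNA written as DNA, built from the T5 scaffold: LDG = donor specificity nt 1-8, RDG = reverse complement of nt 8-11.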
# 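Further: IS621 bridge recombinase in Escherichia coli cells against a fixed T5 target plasmid.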
row,Sequence,recombinant UMI read abundance (log10)
1,AAAACTGCATGGACCGGTTTTCCCGGTAATCCGTATTTGAA (site AAAACTGCTTT),0.637
2,AAAAGATCATGGACCGGTTTTCCCGGTAATCCGTATTTGGA (site AAAAGATCTTC),1.94
3,AAAAGATCATGGACCGGTTTTCCCGGTAATCCGTATTTGGC (site AAAAGATCTGC),2.65
4,AAACACGCATGGACCGGTTTTCCCGGTAATCCGTATTTGGG (site AAACACGCTCC),0.227
5,AAACACGCATGGACCGGTTTTCCCGGTAATCCGTATTTGGG (site AACCACGCTCC),0.0138
6,AAACACGCATGGACCGGTTTTCCCGGTAATCCGTATTTGGG (site AAGCACGCTCC),0.0101
7,AAACACGCATGGACCGGTTTTCCCGGTAATCCGTATTTGGG (site AATCACGCTCC),0.0344
8,AAACAGACATGGACCGGTTTTCCCGGTAATCCGTATTTGGA (site AAACAGACTTC),0.991
9,AAACGAACATGGACCGGTTTTCCCGGTAATCCGTATTTGTC (site AAACGAACTGA),1.58
10,AAACGAACATGGACCGGTTTTCCCGGTAATCCGTATTTGTC (site ACACGAACTGA),0.524
11,AAACGAACATGGACCGGTTTTCCCGGTAATCCGTATTTGTC (site AGACGAACTGA),0
12,AAACGAACATGGACCGGTTTTCCCGGTAATCCGTATTTGTC (site ATACGAACTGA),0.767
13,AAACGAGCATGGACCGGTTTTCCCGGTAATCCGTATTTGAG (site AAACGAGCTCT),1.78
14,AAACGTCCATGGACCGGTTTTCCCGGTAATCCGTATTTGAT (site AAACGTCCTAT),0.701
15,AAACGTCCATGGACCGGTTTTCCCGGTAATCCGTATTTGAT (site AACCGTCCTAT),0.00727
16,AAACGTCCATGGACCGGTTTTCCCGGTAATCCGTATTTGAT (site AAGCGTCCTAT),0.266
17,AAACGTCCATGGACCGGTTTTCCCGGTAATCCGTATTTGAT (site AATCGTCCTAT),0.0129
18,AAAGACCCATGGACCGGTTTTCCCGGTAATCCGTATTTGGT (site AAAGACCCTAC),1.02
19,AAAGCGCCATGGACCGGTTTTCCCGGTAATCCGTATTTGTG (site AAAGCGCCTCA),0.207
20,AAAGCGCCATGGACCGGTTTTCCCGGTAATCCGTATTTGTG (site CAAGCGCCTCA),0.017
21,AAAGCGCCATGGACCGGTTTTCCCGGTAATCCGTATTTGTG (site GAAGCGCCTCA),0.0199
22,AAAGCGCCATGGACCGGTTTTCCCGGTAATCCGTATTTGTG (site TAAGCGCCTCA),0.019

row,Sequence,recombinant UMI read abundance (log10)
1,AAAGGCTCATGGACCGGTTTTCCCGGTAATCCGTATTTGCG (site AAAGGCTCTCG),2.61
2,AAAGTAACATGGACCGGTTTTCCCGGTAATCCGTATTTGCT (site AAAGTAACTAG),2.89
3,AAAGTAACATGGACCGGTTTTCCCGGTAATCCGTATTTGCT (site AACGTAACTAG),2.06
4,AAAGTAACATGGACCGGTTTTCCCGGTAATCCGTATTTGCT (site AAGGTAACTAG),1.66
5,AAAGTAACATGGACCGGTTTTCCCGGTAATCCGTATTTGCT (site AATGTAACTAG),2.1
6,AAAGTATCATGGACCGGTTTTCCCGGTAATCCGTATTTGCA (site AAAGTATCTTG),2.86
7,AAAGTATCATGGACCGGTTTTCCCGGTAATCCGTATTTGCA (site ACAGTATCTTG),2.64
8,AAAGTATCATGGACCGGTTTTCCCGGTAATCCGTATTTGCA (site AGAGTATCTTG),2.83
9,AAAGTATCATGGACCGGTTTTCCCGGTAATCCGTATTTGCA (site ATAGTATCTTG),2.62
10,AAAGTATCATGGACCGGTTTTCCCGGTAATCCGTATTTGCT (site AAAGTATCTAG),2.73
11,AAAGTATCATGGACCGGTTTTCCCGGTAATCCGTATTTGCT (site ACAGTATCTTG),0
12,AAAGTGTCATGGACCGGTTTTCCCGGTAATCCGTATTTGAC (site AAAGTGTCTGT),2.37
13,AAAGTGTCATGGACCGGTTTTCCCGGTAATCCGTATTTGAC (site AACGTGTCTGT),0
14,AAAGTGTCATGGACCGGTTTTCCCGGTAATCCGTATTTGAC (site AAGGTGTCTGT),0
15,AAAGTGTCATGGACCGGTTTTCCCGGTAATCCGTATTTGAC (site AATGTGTCTGT),0.497
16,AAAGTTGCATGGACCGGTTTTCCCGGTAATCCGTATTTGAT (site AAAGTTGCTAT),2.62
17,AAATCTACATGGACCGGTTTTCCCGGTAATCCGTATTTGTG (site AAATCTACTCA),0.209
18,AAATCTACATGGACCGGTTTTCCCGGTAATCCGTATTTGTG (site ACATCTACTCA),0.0169
19,AAATCTACATGGACCGGTTTTCCCGGTAATCCGTATTTGTG (site AGATCTACTCA),0.0155
20,AAATCTACATGGACCGGTTTTCCCGGTAATCCGTATTTGTG (site ATATCTACTCA),0.0108
21,AACAAGACATGGACCGGTTTTCCCGGTAATCCGTATTTGAC (site AACAAGACTGT),2.21
22,AACAGTCCATGGACCGGTTTTCCCGGTAATCCGTATTTGAT (site AACAGTCCTAT),0.504

row,Sequence,recombinant UMI read abundance (log10)
1,AACAGTCCATGGACCGGTTTTCCCGGTAATCCGTATTTGAT (site AACCGTCCTAT),0.00935
2,AACAGTCCATGGACCGGTTTTCCCGGTAATCCGTATTTGAT (site AACGGTCCTAT),0.0119
3,AACAGTCCATGGACCGGTTTTCCCGGTAATCCGTATTTGAT (site AACTGTCCTAT),0
4,AACCAAACATGGACCGGTTTTCCCGGTAATCCGTATTTGAG (site AACCAAACTCT),1.48
5,AACCAAGCATGGACCGGTTTTCCCGGTAATCCGTATTTGAG (site AACCAAGCTCT),1.8
6,AACCAAGCATGGACCGGTTTTCCCGGTAATCCGTATTTGAG (site ACCCAAGCTCT),0.33
7,AACCAAGCATGGACCGGTTTTCCCGGTAATCCGTATTTGAG (site AGCCAAGCTCT),0.217
8,AACCAAGCATGGACCGGTTTTCCCGGTAATCCGTATTTGAG (site ATCCAAGCTCT),0.642
9,AACCACGCATGGACCGGTTTTCCCGGTAATCCGTATTTGGG (site AAACACGCTCC),0.0131
10,AACCACGCATGGACCGGTTTTCCCGGTAATCCGTATTTGGG (site AACCACGCTCC),0.0319
11,AACCACGCATGGACCGGTTTTCCCGGTAATCCGTATTTGGG (site AAGCACGCTCC),0
12,AACCACGCATGGACCGGTTTTCCCGGTAATCCGTATTTGGG (site AATCACGCTCC),0.00485
13,AACCGTACATGGACCGGTTTTCCCGGTAATCCGTATTTGAT (site AACCGTACTAT),1
14,AACCGTACATGGACCGGTTTTCCCGGTAATCCGTATTTGAT (site AACCGTCCTAT),0.0158
15,AACCGTACATGGACCGGTTTTCCCGGTAATCCGTATTTGAT (site AACCGTGCTAT),0.108
16,AACCGTACATGGACCGGTTTTCCCGGTAATCCGTATTTGAT (site AACCGTTCTAT),0
17,AACCGTCCATGGACCGGTTTTCCCGGTAATCCGTATTTGAC (site AACCGTCCTAT),0
18,AACCGTCCATGGACCGGTTTTCCCGGTAATCCGTATTTGAC (site AACCGTCCTCT),0.0147
19,AACCGTCCATGGACCGGTTTTCCCGGTAATCCGTATTTGAC (site AACCGTCCTGT),0.786
20,AACCGTCCATGGACCGGTTTTCCCGGTAATCCGTATTTGAC (site AACCGTCCTTT),0.477
21,AACCGTCCATGGACCGGTTTTCCCGGTAATCCGTATTTGAG (site AACCGTCCTAT),0.0112
